Test results reported in publication PMC3073003, “Peptide-Modified Surfaces for Enzyme Immobilization” (PLoS ONE, 2011).
Ends that are not written are not given here.

Experiments:
β-galactosidase (β-Gal) [1] = target: T1, β-galactosidase (β-Gal) (Escherichia coli, UniProt P00722); test: biochemical; format: binding, E. coli; design: biotin (chemical label by Sulfo-NHS-biotin on amines, about two per enzyme); purchased Sigma (St. Louis, MO)
Experimental: (§1) The activity assay of surface-bound β-Gal was performed on a SpectraMax M5 96-well plate reader (Molecular Device, Sunnyvale, CA) by adding 100 µL of 100 µM RBG into the wells. The relative amount of surface-bound β-Gal was measured using an enzyme linked immunosorbant assay (ELISA). β-Gal was first labeled with biotin. Alkaline phosphatase-conjugated strepavidin (0.4 mg/ml) was diluted at 1∶1000 in 1× PBS, 0.05% (v/v) Tween 20. Next, 30 µL of streptavidin solution was added to the β-Gal-bound wells and incubated for one hour at room temperature. The streptavidin solution was then removed and the plate was washed three times with TBST buffer and three times with TBS buffer. Then, 200 µL of 1 mM PNPP was added to each well. The alkaline phosphatase activity was subsequently measured by reading the absorbance increase at 405 nm on the M5 plate reader. The β-Gal binding level was determined from the activity of alkaline phosphatase-conjugated strepavidin bound to the wells.

β-galactosidase (β-Gal) [2] = target: T1, β-galactosidase (β-Gal); format: biochemical, E. coli; design: biotin (chemical label by Sulfo-NHS-biotin on amines, about two per enzyme); purchased Sigma (St. Louis, MO); conditions: read-out: apparent Km of β-Gal; peptide-modified iodoacetyl resin or free enzyme, ~150 pM enzyme, RBG 3-400 µM, 25 °C
Experimental: The determination of the enzyme kinetic constants (KM and kcat) of immobilized β-Gal was performed on peptide-modified iodoacetyl polyacrylamide resin (UltraLink, Pierce, 50–80 µm diameter). To modify the bead surface with peptide, peptide solutions were incubated with iodoacetyl resin for one hour in 50 mM Tris buffer, 5 mM EDTA, pH 8.5. The unreacted iodacetyl groups were then capped with 50 mM L-cysteine. The amount of peptide immobilized on a bead surface was determined by comparing the peptide concentration of the unbound fraction (the remaining free peptide concentration after binding to the surface) to the starting concentration through absorbance changes at 280 nm. β-Gal was captured on the peptide-modified beads using the same protocol which immobilized the enzyme in the microwells, above. The amount of bead-immobilized β-Gal was measured by comparing the protein concentration of the unbound fraction to the starting protein concentration, determined at 280 nm. KM and Vmax (and thus kcat, using the total enzyme concentration) of β-Gal immobilized on peptide-modified beads were determined by fitting the activity vs. substrate concentration curves in the GraphPad program using the fitting equation of “Y = Vmax*X/(Km+X)”.
Colored curves: Curve fit determining the Michaelis constants of β-Gal immobilized […]
The enzyme activities are measured as a function of the concentration of […]

β-galactosidase (β-Gal) [3] = target: T1, β-galactosidase (β-Gal); format: binding, E. coli; design: biotin (chemical label by Sulfo-NHS-biotin on amines, about two per enzyme); purchased Sigma (St. Louis, MO); conditions: for Binding affinity (Norm.): β-Gal bound to surface-modified microwells, 25 nM biotin-labeled β-Gal, ELISA, normalized to amine surface 8
Experimental: (§2) Peptides were conjugated to aminated microwell surfaces through the specific reaction between C-terminal cysteines and the maleimide-activated surfaces, as shown in Figure 1a. […] The microwell plate was then briefly washed with pure water three times. […] The reaction was incubated for 4 hours at room temperature, in the dark. After the conjugation reaction was complete, the microwells were washed for 5 minutes in 1× TBST, three times, followed by three washes in water. To immobilize the enzyme on peptide-modified surfaces, 30 µL of 25 nM biotin-labeled β-Gal was incubated in the peptide-modified microwells for two hours in 10 mM phosphate buffer, pH 7.3 with 100 µM MgCl2 and 0.05% Tween 20 (v/v%), at room temperature. The microwells were washed for 5 minutes in 1× TBST, three times, followed by three washes in phosphate buffer. […] Figures S8–10 in File S1 show the detailed optimization procedures for peptide-modified surfaces.
(§3) First, 30 µL of 2 mg/mL BS^3 prepared in 1× PBS, pH 7.4 was incubated with the aminated microwells for half an hour. Then, the microwells were briefly washed with nanopure water, three times, to remove unreacted BS^3 molecules. Finally, 30 µL of biotin-labeled β-Gal was incubated with the microwells for one hour, which were then washed three times in 1× TBST, followed by three washes in phosphate buffer.
as §1

β-galactosidase (β-Gal) [4] = target: T1, β-galactosidase (β-Gal); format: biochemical, E. coli; design: biotin (chemical label by Sulfo-NHS-biotin on amines, about two per enzyme); purchased Sigma (St. Louis, MO); conditions: for Specific activity (Norm.): total bound enzyme activity divided by total binding intensity; for Specific activity (Norm.) / Activity (Norm.): normalized to amine surface 8; for Activity (Norm.): β-Gal immobilized on surface-modified microwells, 25°C
Experimental: Figure 1 Enzyme immobilization on peptide-modified surfaces. (a) The overall process for conjugating peptides to aminated microwells through specific reactions between C-terminal cysteines and maleimide-activated surfaces. (b) Activity of β-Gal immobilized on different surfaces. 25 nM β-Gal is first incubated with modified microwells for one hour and then enzyme activity is measured at 25°C as a function of time using 100 µM Resorufin β-D-galactopyranoside as the substrate. YHNN, QYHH, RVFK, PASM and EFSN represent β-Gal bound to various peptide-modified surfaces (see text). […] AMINE represents enzyme bound noncovalently to an aminated surface. […] Each subunit is labeled with a unique color showing the symmetry of the β-Gal structure. […] The substrate-binding sites of β-Gal are circled with right color (Glu461, Met502, Tyr503 and Glu537) according to reference 16.
as §2, §3, §1

β-galactosidase (β-Gal) [5] = target: T1, β-galactosidase (β-Gal); format: binding, E. coli; design: biotin (chemical label by Sulfo-NHS-biotin on amines, about two per enzyme); purchased Sigma (St. Louis, MO); conditions: for Enzyme binding (Norm.): microarray of 10,000 peptides, selection described in reference [13]
Source text: (§4) Peptide microarrays containing 132, 20-mer single-point variants of the YHNN peptide were generated using our established, in-house printing method. […] Synthesized peptides (70% purity) were purchased from Sigma. The last three carboxy-terminal positions of each peptide constituted a glycine-serine-cysteine (GSC) linker, used for conjugating the peptides to amino-silane surfaces through the C-terminal cysteine via a maleimide linker, Sulfo-SMCC (Pierce, Rockford, IL). A Telechem Nanoprint60 was used to spot approximately 500 pL of 1 mg/mL peptide prepared in 1× PBS for each feature on glass slides with 48 Telechem series SMP2 style 946 titanium pins.
(§5) Enzyme assays on the microarrays were performed as described in the previous work. […] The array was incubated with a solution containing 10 nM Alexa™ 647- labeled β-Gal for two hours, allowing the enzyme to bind with peptides on the array surface. After washing off unbound enzymes, a fluorescent substrate analogue (FDG) was mixed with a 5% PVA solution and spin-coated onto the array surface for monitor the enzyme activity. The FDG molecules (substrate) in the PVA layer were converted to fluorescein (product), by the active enzymes bound to specific peptides on the array surface. The fluorescein molecules remained localized because of the PVA viscosity. Both the relative binding level of Alexa™ 647-labeled enzyme and the relative amount of fluorescein produced during the incubation period were determined by dual color scanning. Each array experiment was repeated at least three times under the same conditions for statistical analysis.

β-galactosidase (β-Gal) [6] = target: T1, β-galactosidase (β-Gal); format: biochemical, E. coli; design: biotin (chemical label by Sulfo-NHS-biotin on amines, about two per enzyme); purchased Sigma (St. Louis, MO); conditions: for Enzyme activity (Norm.) / Surface specific activity (Norm.): microarray of 10,000 peptides; for Enzyme activity (Norm.): selection described in reference [13]; for Surface specific activity (Norm.): total bound enzyme activity divided by total binding intensity
Source text: as §4, §5

β-galactosidase (β-Gal) [7] = target: T1, β-galactosidase (β-Gal)
Experimental: Figure 2 Point-variant screening of a lead peptide, YHNN. β-Gal was bound to a microarray containing 132 YHNN variants and its activity was measured. (a) The activity of bound β-Gal on microarrays as a function of the amount of enzyme bound to a particular variant feature at room temperature. […] All data is normalized to the binding and activity values for the lead peptide, YHNN. (b) Thermal-stability assay. β-Gal was bound to the microarray containing YHNN variants as in (a) at room temperature, followed by incubation in phosphate buffer at 55°C for one hour. Enzyme activity was then assayed at room temperature. […] (c) pH activity range assay. YHNN variant microarrays were bound to β-Gal as in (a) and incubated at room temperature in buffers with pHs ranging from 6 to 9 for one hour and then assayed for activity at the pH of incubation.
The library of single-point variants was also screened for enhanced thermal or pH stability of immobilized β-Gal. For thermal stability screening, enzyme was bound to microarrays containing the 132 single-point variants, at room temperature, and then the arrays were incubated at 55°C for one hour and assayed for activity at room temperature.

[8] = peptide conjugated to aminated microwell
[9] = peptide-modified aminated microwell
[10] = microarray of 132 single-point variants, room temperature

T1 sequence (P00722 2-1024): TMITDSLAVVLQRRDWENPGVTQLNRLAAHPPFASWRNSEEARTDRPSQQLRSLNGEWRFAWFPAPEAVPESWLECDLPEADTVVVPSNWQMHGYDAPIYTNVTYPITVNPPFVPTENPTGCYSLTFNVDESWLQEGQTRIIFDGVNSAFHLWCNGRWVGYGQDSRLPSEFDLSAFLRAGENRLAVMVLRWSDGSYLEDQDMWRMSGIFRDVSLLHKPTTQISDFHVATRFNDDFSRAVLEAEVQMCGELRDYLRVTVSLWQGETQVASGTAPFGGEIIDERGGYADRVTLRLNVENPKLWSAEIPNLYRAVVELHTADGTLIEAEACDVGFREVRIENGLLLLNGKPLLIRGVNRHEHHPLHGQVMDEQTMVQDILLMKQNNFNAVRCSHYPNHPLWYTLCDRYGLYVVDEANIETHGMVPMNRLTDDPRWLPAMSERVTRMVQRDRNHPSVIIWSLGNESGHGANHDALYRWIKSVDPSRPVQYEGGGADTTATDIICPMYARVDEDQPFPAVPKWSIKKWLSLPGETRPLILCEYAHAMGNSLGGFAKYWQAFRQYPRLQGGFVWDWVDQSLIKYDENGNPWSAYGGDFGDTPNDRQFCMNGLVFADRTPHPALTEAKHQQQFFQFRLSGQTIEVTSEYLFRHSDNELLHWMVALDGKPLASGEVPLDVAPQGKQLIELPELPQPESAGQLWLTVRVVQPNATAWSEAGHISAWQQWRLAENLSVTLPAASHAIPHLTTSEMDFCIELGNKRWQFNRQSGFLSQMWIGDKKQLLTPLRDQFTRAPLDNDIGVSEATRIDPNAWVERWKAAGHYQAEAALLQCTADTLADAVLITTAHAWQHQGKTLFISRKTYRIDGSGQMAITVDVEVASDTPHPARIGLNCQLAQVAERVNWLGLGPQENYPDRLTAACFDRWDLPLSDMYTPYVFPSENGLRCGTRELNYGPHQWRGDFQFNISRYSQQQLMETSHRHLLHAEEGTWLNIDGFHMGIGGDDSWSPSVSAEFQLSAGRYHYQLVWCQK

## YHNNPGFRVMQQNKLHHGSC [YHNN]
β-galactosidase (β-Gal) [1]
  Kd: ~5 nM
β-galactosidase (β-Gal) [2]
  Km: ~240 µM

## EFSNPTAQVFPDFWMSDGSC
β-galactosidase (β-Gal) [3]
  Binding affinity (Norm.): 0.1±0.01
β-galactosidase (β-Gal) [4]
  Specific activity (Norm.): 0.4±0.1
β-galactosidase (β-Gal) [4]; 100 µM RBG
  Activity (Norm.): 0.05±0.01
β-galactosidase (β-Gal) [5]
  Enzyme binding (Norm.): 0.4
β-galactosidase (β-Gal) [6]
  Enzyme activity (Norm.): 0.7

## YHNNPGFRVMQANKLHHGSC [Peptide Q12A]
β-galactosidase (β-Gal) [7]; microarray incubated one hour at pH 6 and assayed at that pH
  specific activity increase of bound β-Gal compared to YHNN lead peptide at pH 6: 4.1 fold
β-galactosidase (β-Gal) [7]; microarray incubated one hour at pH 9 and assayed at that pH
  specific activity increase of bound β-Gal compared to YHNN lead peptide at pH 9: 2.8 fold

## RVFKRYKRWLHVSRYYFGSC
β-galactosidase (β-Gal) [3]
  Binding affinity (Norm.): 0.9±0.05
β-galactosidase (β-Gal) [4]
  Specific activity (Norm.): 0.1±0.01
β-galactosidase (β-Gal) [4]; 100 µM RBG
  Activity (Norm.): 0.1±0.01
β-galactosidase (β-Gal) [5]
  Enzyme binding (Norm.): 50.3
β-galactosidase (β-Gal) [6]
  Enzyme activity (Norm.): 0.9
  Surface specific activity (Norm.): 0.08

## QYHHFMNLKRQGRAQAYGSC [QYHH]
β-galactosidase (β-Gal) [1]
  Kd: ~4 nM
β-galactosidase (β-Gal) [2]
  Km: 250 µM

## PASMFSYFKKQGYYYKLGSC
β-galactosidase (β-Gal) [3]
  Binding affinity (Norm.): 0.5±0.1
β-galactosidase (β-Gal) [4]
  Specific activity (Norm.): 0.5±0.1
β-galactosidase (β-Gal) [4]; 100 µM RBG
  Activity (Norm.): 0.3±0.06
β-galactosidase (β-Gal) [5]
  Enzyme binding (Norm.): 63.9
β-galactosidase (β-Gal) [6]
  Enzyme activity (Norm.): 2.3
  Surface specific activity (Norm.): 0.16

## YHNNPGFRYMQQNKLHHGSC [Peptide V9Y]
β-galactosidase (β-Gal) [3]; [8]
  binding of immobilized β-Gal relative to YHNN: ~2 fold
β-galactosidase (β-Gal) [4]; [8]
  specific activity of immobilized β-Gal relative to YHNN: ~2 fold
β-galactosidase (β-Gal) [4]; [9]
  total bound enzymatic activity relative to the NHS surface: ~12 fold
  total bound enzymatic activity relative to the amine surface: more than 5 fold
β-galactosidase (β-Gal) [4]; peptide-modified aminated microwell, 100 µM RBG
  total activity of the bound enzyme relative to YHNN: ~5 fold
β-galactosidase (β-Gal) [4]; single-point variants on aminated microwell surfaces
  total bound enzyme activity compared with YHNN: improvement
β-galactosidase (β-Gal) [5]; [10]
  binding of β-Gal relative to YHNN lead peptide: 1.5 fold
β-galactosidase (β-Gal) [6]; [10]
  specific activity of bound β-Gal relative to YHNN lead peptide: ~3 fold
